In a melting point compilation (Tetko et al.) one finds melting point data, which are given here for 111 compounds.

Turning to `O=[N+]([O-])c1cc(C(F)(F)F)ccc1CCl`, the melting point is 44 °C.

Compound `COC(=O)c1cc2c(=O)oc3ccccc3c2nc1C` gave a melting point of 215 °C.

`Nc1cc(C(F)(F)F)ccc1Cl` came in with a melting point of 10 °C.

`Nc1ccc(CC(N)C(=O)O)cc1` (racemic): the melting point lay within 255 to 258 °C.

The compound `CC(C)(Oc1ccc(C(C)(C)C)cc1)C(=O)O` displayed a melting point of 97 to 98 °C.

`C=CCSc1nnc(-c2cc(Br)cc(Br)c2O)n1N` returned a melting point of 162 °C.

Take `CSc1nc(=O)n(Cc2ccccc2)c2c1CCC2`: the melting point fell in the range of 94 to 96 °C.

Consider `COC(=O)c1ccc(OC)c(OC2CCCC2)c1`, for which the melting point lay within 59 to 61 °C.

The compound `CC(C)(C)OC(=O)N1CCCC(=O)C1` came in with a melting point of 38 °C.

Turning to `BrCc1ccccc1COc1ccccc1`, the melting point lay in the range of 53 to 59 °C.

Compound `COC1(C=O)C=CC2=C(C1)OCO2` (stereo unspecified) gave a melting point of 129 °C.

`O=C1Cc2cc(Br)ccc2N1`: the melting point fell in the range of 219 to 221 °C.

In turn, `CCCCCCCCCCCCCCOc1ccccc1NC(=O)c1cc(Oc2ccc([N+](=O)[O-])cc2CN(C(=O)Cl)C(C)C)c2ccccc2c1O` had a melting point of 109 to 116 °C.

Compound `CCOC(=O)c1nc(C(Cl)(Cl)Cl)n(-c2ccc(Cl)cc2Cl)n1` yielded a melting point of 110 °C.

With `N#CCCN(CCO)c1ccc(N=Nc2ccc([N+](=O)[O-])cc2Cl)cc1`, the melting point was 157 °C.

`O=[N+]([O-])c1ccccc1SCl` yielded a melting point of 74 °C.

As to `N#Cc1cc([N+](=O)[O-])ccc1Sc1ccc(Cl)cc1`, the melting point is 167 to 168 °C.

Regarding `O=C(O)Cn1c(CN2CCOCC2)nc2ccccc21`, the melting point is 214 to 218 °C.

On to `CC(C)Nc1ccccc1`, for which the melting point was -10 °C.

Compound `Cn1c(=O)c2c(ncn2CCOC(=O)c2cccnc2)n(C)c1=O` showed a melting point of 152 °C.

Regarding `O=C(O)c1ccccc1S(=O)(=O)O`, the melting point was found to be 142 °C.

Turning to `Nc1ccc(-c2cnco2)cc1`, the melting point lay in the range of 150 to 151 °C.

In turn, `Brc1sc(-c2ccccc2)nc1-c1ccccc1` gave a melting point of 88 to 89 °C.

Take `NC(CN(Cc1ccccc1)c1ccccc1)=NO`: the melting point amounted to 107 °C.

As for `O=C1c2ccccc2C(=O)C1(Br)c1ccccc1`, the melting point is 106 to 107 °C.

In turn, `O=C(Nc1ncc([N+](=O)[O-])s1)c1cccs1` displayed a melting point of 256 °C.

With `O=C(OCc1ccccc1)OCc1ccccc1`, the melting point lay within 29 to 33 °C.

Take `Clc1cc(Cl)c2c(c1)oc1c(Cl)cc(Cl)cc12`: the melting point stood at 177 °C.

In turn, `CCCN(CC)CC1COC2(CCC(C(C)(C)C)CC2)O1` (stereo unspecified) came in with a melting point of under 25 °C.

In turn, `c1ccc2sc(SN3CCOCC3)nc2c1` displayed a melting point of 85 °C.

In turn, `Cc1c(Cl)cccc1Cl` gave a melting point of 25.8 °C.

In turn, `OC(CCN1CCCC1)(c1ccccc1)C1CCCCC1` (stereo unspecified) yielded a melting point of 86 °C.

With `c1ccc2sc(SN(C3CCCCC3)C3CCCCC3)nc2c1`, the melting point was 99.8 °C.

In the case of `O=c1[nH]c2ccccc2n1C1CCNCC1`, the melting point lay within 183 to 185 °C.

As to `Cn1ccc2cc([N+](=O)[O-])ccc21`, the melting point lay in the range of 167 to 169 °C.

For the compound `O=Cc1ccc(Cn2cncn2)cc1`, the melting point was 73 to 75 °C.

Compound `CC(C)n1cc(-c2ccc(F)cc2)c2ccccc21` displayed a melting point of 97 °C.

For `O=C(Cn1cncn1)c1ccc(F)cc1F`, the melting point amounted to 105 °C.

Compound `NCCCNCCNCCCN` came in with a melting point of -1.5 °C.

On to `COc1ccc(OCC2CO2)cc1` (stereo unspecified), for which the melting point was determined as 47 °C.

Compound `O=[N+]([O-])c1ccc(Nc2ccccc2)cc1` yielded a melting point of 135 °C.

`O=C(NCc1ccccn1)C(F)(F)F`: the melting point amounted to 75 °C.

The compound `O=C(O)C=C1OC(=O)c2ccccc21` showed a melting point of 287 to 290 °C.

In turn, `CCCCCCCCCCCC(C)C` had a melting point of -25 °C.

The compound `CC1(C)C(C=NO)=[N+]([O-])C(C)(C)N1O` had a melting point of 157 to 159 °C.

`CC12CCC(=O)CC1CCC1C2CCC2(C)C1CCC21OCCS1` (stereo unspecified): the melting point stood at 201 °C.

Compound `CC(CCCO)C1CCC2C3CCC4CCCCC4(C)C3CCC12C` (stereo unspecified) registered a melting point of 130 °C.

`O=C(C=CC1=NC=NC1)NCCc1cnc[nH]1`: the melting point lay in the range of 240 to 241 °C.

As to `CNCc1c(C)nc2ccccn12`, the melting point fell in the range of 73 to 75 °C.

In turn, `COc1ccc(Cn2ncc(Cl)c(Cl)c2=O)cc1` had a melting point of 117 to 120 °C.

Compound `O=C(O)c1cc(Cl)nc(Cl)c1` displayed a melting point of 210 to 211 °C.

Consider `O=C(/C(=N/Nc1cccnc1)C(=O)C(F)(F)F)c1cccs1`, for which the melting point was 150 °C.

The compound `COC(=O)c1nn2ccccc2c1C(=O)OC` came in with a melting point of 72 to 74 °C.

In turn, `O=C(Cl)CCl` gave a melting point of -22 °C.

For `Brc1ccc2c(c1)Oc1ccc(Br)cc1O2`, the melting point turned out to be 193 °C.

`CC1(C)C2CCC1(C)C(O)/C2=C\CC(=O)O` (stereo unspecified) came in with a melting point of 51 to 52 °C.

The compound `c1cc(-c2nnn[nH]2)ccn1` came in with a melting point of 265 to 267 °C.

On to `CS(=O)c1cccc(CC(=O)O)c1` (stereo unspecified), for which the melting point is 111 °C.

In turn, `CC(C=Cc1ccccc1)=NO` showed a melting point of 116 to 120 °C.

The compound `O=[N+]([O-])c1ccc(-c2nnc3n2NC(c2ccco2)S3)cc1` (stereo unspecified) came in with a melting point of 210 °C.

For `NC(=O)c1ccnc(I)c1`, the melting point is 165 °C.

Compound `CCCCCCCCCOC(=O)c1ccc(N)cc1` showed a melting point of 69 °C.

With `CNCc1ccc(-c2cccs2)nc1`, the melting point was 65.5 to 66.5 °C.

With `Cn1cnc2ncnc-2c1N`, the melting point was 300 °C.

As to `COc1c(F)cc(Br)cc1[N+](=O)[O-]`, the melting point was determined as 55 °C.

`O=C(CBr)c1ccc2c(c1)OCCCO2` returned a melting point of 78 to 80 °C.

On to `Cc1nonc1C`, for which the melting point was -7 °C.

As for `CCOC(=O)C1C(c2ccccc2O)C(C(=O)OCC)C(O)(C(F)(F)F)NC1(O)C(F)(F)F` (stereo unspecified), the melting point was found to be 91 °C.

Turning to `NS(=O)(=O)c1ccc(F)c(Cl)c1`, the melting point was determined as 109 °C.

Take `O=S(=O)(Cl)c1cc(Cl)ccc1F`: the melting point is 43 °C.

As to `CC(=O)OC1CCC2(C)C(C1)CC1(OCCO1)C1C3CCC(=O)C3(C)CCC12` (stereo unspecified), the melting point was found to be 240 °C.

With `CSc1nc2[nH]c(=S)n(-c3ccccc3)c(=O)c2n1C`, the melting point is 268 to 270 °C.

`Oc1ccccc1C(O)c1ccccc1` (stereo unspecified) gave a melting point of 88 °C.

Compound `Cc1cc(C)n(-c2ccc(C(=O)O)cc2)n1` gave a melting point of 163 °C.

As for `Cc1ccc2[nH]cc(CC(N)C(=O)O)c2c1` (racemic), the melting point was 280 to 282 °C.

Consider `CCOC(=O)c1csc(-c2ccc(Br)s2)n1`, for which the melting point is 97 to 101 °C.

For the compound `OCC(O)CC(F)(F)C(F)(F)C(F)(F)C(F)(F)C(F)(F)C(F)(F)C(F)(F)C(F)(F)F` (stereo unspecified), the melting point is 114 to 116 °C.

The compound `O=c1nc(SCc2ccc(Cl)cc2)c2c([nH]1)CCCC2` returned a melting point of 287 to 289 °C.

With `NNC(=S)Nc1ccc(OCc2ccccc2)cc1`, the melting point lay within 167 to 170 °C.

Compound `Clc1cccnc1Br` showed a melting point of 60 °C.

For the compound `O=C1C=C2C(=CCOC2O)O1` (stereo unspecified), the melting point is 111 °C.

`FC(F)(F)C(F)(F)C(Cl)(Cl)Cl` had a melting point of -80 °C.

Compound `Cc1cnc(C(=O)O)cn1` registered a melting point of 166 °C.

In turn, `Nc1ncnc2c1ncn2CC(O)CO` (stereo unspecified) had a melting point of 202 to 203 °C.

`O=[N+]([O-])c1ccc(/C=C\c2ccccc2C=NNc2ccccc2)c([N+](=O)[O-])c1` gave a melting point of 193 °C.

As to `CCCCCCCCCCCCCCCCCCI`, the melting point came out at 34 °C.

Consider `CN(C)CCCOc1nn(Cc2ccccc2)c2ccccc12`, for which the melting point was 160 °C.

`c1ccc(Cc2cccnc2)cc1` came in with a melting point of 34 °C.

`Cc1ccc(N2C(=O)C3ON=C(C(=O)c4cccs4)C3C2=O)cc1` (stereo unspecified) came in with a melting point of 160 °C.

In turn, `O=[N+]([O-])c1ccc(NN=Cc2cccc3c(Br)ccc([N+](=O)[O-])c23)cc1` had a melting point of 205 °C.

Compound `O=S(=O)(c1ccccc1)n1c(CBr)cc2ccccc21` had a melting point of 116 to 117 °C.

Consider `CS(=O)(=O)c1ccc(C(=O)C2C(=O)CCCC2=O)c(Cl)c1`, for which the melting point is 139 °C.

Regarding `O=C(Nc1ccc(Oc2ccc(Cl)cc2)c(Cl)c1)c1cc(I)cc(I)c1O`, the melting point came to 169 °C.

`CNc1c(C=O)c(=O)n(C)c(=O)n1C`: the melting point was 203 °C.

Regarding `N#CC1CN(C(c2ccccc2)c2ccccc2)C1`, the melting point fell in the range of 153 to 156 °C.

Compound `CCOc1c(Br)cc(Br)cc1C=O` returned a melting point of 87 to 87.5 °C.

Compound `O=c1[nH]c2ccc(Cl)cc2o1` showed a melting point of 192 to 193 °C.

In turn, `COc1c(C)c(C)c(OC)c2c1CC2=O` returned a melting point of 109 °C.

As to `C=CCC1(CC(C)C)C(=O)NC(=O)NC1=O`, the melting point is 138 °C.

The compound `CCOC(=O)C=Cc1cc(C=CC(=O)OCC)c([N+](=O)[O-])cc1[N+](=O)[O-]` showed a melting point of 116 °C.

Take `OC12Cc3ccccc3C(O)(Cc3ccccc31)O2`: the melting point lay within 160 to 167 °C.

Regarding `O=C(Cl)c1ccc(-n2cccn2)cc1`, the melting point was 127 to 128 °C.

The compound `C=C(C)C(CC)CC` displayed a melting point of -113 °C.

Turning to `Brc1cccc(Br)c1Br`, the melting point is 87.5 °C.

As for `Cc1cc(NS(=O)(=O)c2ccc(N)cc2)sn1`, the melting point was determined as 192 °C.

The compound `C=CN(C)C(C)=O` had a melting point of -36 °C.

As for `Cc1ccc(C(N)CC(=O)O)cc1` (stereo unspecified), the melting point fell in the range of 223 to 227 °C.

Regarding `COc1ccc([N+](=O)[O-])c(I)c1`, the melting point lay within 68 to 73 °C.

In the case of `Cc1c(Cl)cc(Cl)c(O)c1Cl`, the melting point worked out at 46 °C.

`COc1ccc(-n2c(SC)nc3nc(SC)n(C)c3c2=O)cc1` came in with a melting point of 213 to 214 °C.

`O=S(=O)(Cl)c1ccsc1` yielded a melting point of 44 to 45 °C.
